Reference: US7994140B2, “Classes of compounds that interact with GPCRs” (Alchemia Limited, priority 2002, dated 2011)

target: T1, MC4 (Homo sapiens, UniProt P32245); assay: GPCR radioligand binding (RLB) assay, melanocortin MC4, [125I]NDP-αMSH; details: 4.0 Micromolar; Example Library 12
T1 construct: purchased Perkin Elmer BioSignal; host or cells: HEK 293
Summary of the method: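 Competition binding against radioligand ([125I]NDP-αMSH for MC4, [125I]SST-14 for SST5) on membranes of HEK 293 cells carrying the human receptor; buffer and incubation time optimized per receptor. Filtration through 0.5% PEI-treated glass fiber, washing, then scintillation counting.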

T1 sequence (P32245 whole entry): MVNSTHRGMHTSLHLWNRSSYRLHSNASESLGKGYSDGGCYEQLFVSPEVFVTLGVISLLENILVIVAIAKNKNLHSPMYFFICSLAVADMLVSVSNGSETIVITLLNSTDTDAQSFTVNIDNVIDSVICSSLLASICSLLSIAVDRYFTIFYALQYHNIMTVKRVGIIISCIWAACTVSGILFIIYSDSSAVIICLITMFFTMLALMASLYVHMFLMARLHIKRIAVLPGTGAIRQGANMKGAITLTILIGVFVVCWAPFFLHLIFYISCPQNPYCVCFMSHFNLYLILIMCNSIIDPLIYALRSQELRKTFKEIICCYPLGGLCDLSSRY

Structure (SMILES) | MC4 Inhibition at 4.0 Micromolar
N=C(N)NCCC(=O)N[C@H]1C(OCc2ccccc2)O[C@H](COCc2ccc3ccccc3c2)[C@@H](O)[C@@H]1OCc1ccc(Cl)cc1 (stereo partly shown) [Compound 447] | + (Indicates inhibition greater than . . . 50%)
N=C(N)NCCC(=O)N[C@H]1C(OCc2ccccc2)O[C@H](COCc2ccccc2)[C@@H](O)[C@@H]1OCc1ccc(Cl)cc1 (stereo partly shown) [Compound 448] | + (Indicates inhibition greater than . . . 50%)
N=C(N)NCCC(=O)N[C@H]1C(OCc2ccccc2)O[C@H](COCc2ccccc2)[C@@H](O)[C@@H]1OCc1ccc(Cl)cc1 (stereo partly shown) [Compound 449] | + (Indicates inhibition greater than . . . 50%)
N=C(N)NCCC(=O)N[C@H]1C(OCc2ccccc2)O[C@H](COCc2ccc(Cl)cc2)[C@@H](O)[C@@H]1OCc1ccc(Cl)cc1 (stereo partly shown) [Compound 450] | + (Indicates inhibition greater than . . . 50%)
N=C(N)NCCC(=O)N[C@H]1C(OCc2ccccc2)O[C@H](COCc2ccc(Cl)cc2)[C@@H](O)[C@@H]1OCc1ccc(Cl)cc1 (stereo partly shown) [Compound 451] | + (Indicates inhibition greater than . . . 50%)
N=C(N)NCCC(=O)N[C@H]1C(OCc2ccccc2)O[C@H](COCc2ccc3ccccc3c2)[C@@H](O)[C@@H]1OCc1ccc2ccccc2c1 (stereo partly shown) [Compound 452] | + (Indicates inhibition greater than . . . 50%)
N=C(N)NCCC(=O)N[C@H]1C(OCc2ccccc2)O[C@H](COCc2ccccc2)[C@@H](O)[C@@H]1OCc1ccc2ccccc2c1 (stereo partly shown) [Compound 453] | + (Indicates inhibition greater than . . . 50%)
N=C(N)NCCC(=O)N[C@H]1C(OCc2ccccc2)O[C@H](COCc2ccccc2)[C@@H](O)[C@@H]1OCc1ccc2ccccc2c1 (stereo partly shown) [Compound 454] | + (Indicates inhibition greater than . . . 50%)
N=C(N)NCCC(=O)N[C@H]1C(OCc2ccccc2)O[C@H](COCc2ccc(Cl)cc2)[C@@H](O)[C@@H]1OCc1ccc2ccccc2c1 (stereo partly shown) [Compound 455] | + (Indicates inhibition greater than . . . 50%)
N=C(N)NCCC(=O)N[C@H]1C(OCc2ccccc2)O[C@H](COCc2ccc(Cl)cc2)[C@@H](O)[C@@H]1OCc1ccc2ccccc2c1 (stereo partly shown) [Compound 456] | + (Indicates inhibition greater than . . . 50%)
N=C(N)NCCC(=O)N[C@H]1C(OCc2ccccc2)O[C@H](COCc2ccc3ccccc3c2)[C@@H](O)[C@@H]1OCc1ccc(-c2ccccc2)cc1 (stereo partly shown) [Compound 457] | + (Indicates inhibition greater than . . . 50%)
N=C(N)NCCC(=O)N[C@H]1C(OCc2ccccc2)O[C@H](COCc2ccc3ccccc3c2)[C@@H](O)[C@@H]1OCc1ccc(-c2ccccc2)cc1 (stereo partly shown) [Compound 458] | + (Indicates inhibition greater than . . . 50%)
N=C(N)NCCC(=O)N[C@H]1C(OCc2ccccc2)O[C@H](COCc2ccccc2)[C@@H](O)[C@@H]1OCc1ccc(-c2ccccc2)cc1 (stereo partly shown) [Compound 459] | + (Indicates inhibition greater than . . . 50%)
N=C(N)NCCC(=O)N[C@H]1C(OCc2ccccc2)O[C@H](COCc2ccc(Cl)cc2)[C@@H](O)[C@@H]1OCc1ccc(-c2ccccc2)cc1 (stereo partly shown) [Compound 460] | + (Indicates inhibition greater than . . . 50%)
N=C(N)NCCC(=O)N[C@H]1C(OCc2ccccc2)O[C@H](COCc2ccc(Cl)cc2)[C@@H](O)[C@@H]1OCc1ccc(-c2ccccc2)cc1 (stereo partly shown) [Compound 461] | + (Indicates inhibition greater than . . . 50%)
N=C(N)NCCC(=O)N[C@H]1C(OCc2ccccc2)O[C@H](COCCc2ccccc2)[C@@H](O)[C@@H]1OCc1ccc(-c2ccccc2)cc1 (stereo partly shown) [Compound 462] | + (Indicates inhibition greater than . . . 50%)

same assay, conditions: 4.0 Micromolar; Example Library 13

Structure (SMILES) | MC4 Inhibition at 4.0 Micromolar
N=C(N)NCC(=O)N[C@H]1C(OCc2ccc(-c3ccccc3)cc2)O[C@H](COCc2ccc3ccccc3c2)[C@@H](O)[C@H]1OCc1ccc(Cl)cc1 (stereo partly shown) [Compound 463] | + (Indicates inhibition greater than . . . 50%)
N=C(N)NCC(=O)N[C@H]1C(OCc2ccc(-c3ccccc3)cc2)O[C@H](COCc2ccccc2)[C@@H](O)[C@H]1OCc1ccc(Cl)cc1 (stereo partly shown) [Compound 464] | + (Indicates inhibition greater than . . . 50%)
N=C(N)NCC(=O)N[C@H]1C(OCc2ccc(-c3ccccc3)cc2)O[C@H](COCc2ccc(Cl)cc2)[C@@H](O)[C@H]1OCc1ccc(Cl)cc1 (stereo partly shown) [Compound 465] | + (Indicates inhibition greater than . . . 50%)
N=C(N)NCC(=O)N[C@H]1C(OCc2ccc(-c3ccccc3)cc2)O[C@H](COCc2ccccc2)[C@@H](O)[C@H]1OCc1ccc2ccccc2c1 (stereo partly shown) [Compound 466] | + (Indicates inhibition greater than . . . 50%)
N=C(N)NCC(=O)N[C@H]1C(OCc2ccc(-c3ccccc3)cc2)O[C@H](COCc2ccc(Cl)cc2)[C@@H](O)[C@H]1OCc1ccc2ccccc2c1 (stereo partly shown) [Compound 467] | + (Indicates inhibition greater than . . . 50%)
N=C(N)NCC(=O)N[C@H]1C(OCc2ccc(-c3ccccc3)cc2)O[C@H](COCc2ccccc2)[C@@H](O)[C@H]1OCc1ccc(-c2ccccc2)cc1 (stereo partly shown) [Compound 468] | + (Indicates inhibition greater than . . . 50%)
N=C(N)NCC(=O)N[C@H]1C(OCc2ccc(-c3ccccc3)cc2)O[C@H](COCc2ccc(Cl)cc2)[C@@H](O)[C@H]1OCc1ccc(-c2ccccc2)cc1 (stereo partly shown) [Compound 469] | + (Indicates inhibition greater than . . . 50%)
N=C(N)NCCC(=O)N[C@H]1C(OCc2ccc(-c3ccccc3)cc2)O[C@H](COCc2ccc3ccccc3c2)[C@@H](O)[C@H]1OCc1ccc(Cl)cc1 (stereo partly shown) [Compound 470] | + (Indicates inhibition greater than . . . 50%)
N=C(N)NCCC(=O)N[C@H]1C(OCc2ccc(-c3ccccc3)cc2)O[C@H](COCc2ccccc2)[C@@H](O)[C@H]1OCc1ccc(Cl)cc1 (stereo partly shown) [Compound 471] | + (Indicates inhibition greater than . . . 50%)
N=C(N)NCCC(=O)N[C@H]1C(OCc2ccc(-c3ccccc3)cc2)O[C@H](COCc2ccc(Cl)cc2)[C@@H](O)[C@H]1OCc1ccc(Cl)cc1 (stereo partly shown) [Compound 472] | + (Indicates inhibition greater than . . . 50%)
N=C(N)NCCC(=O)N[C@H]1C(OCc2ccc(-c3ccccc3)cc2)O[C@H](COCc2ccc3ccccc3c2)[C@@H](O)[C@H]1OCc1ccc2ccccc2c1 (stereo partly shown) [Compound 473] | + (Indicates inhibition greater than . . . 50%)
N=C(N)NCCC(=O)N[C@H]1C(OCc2ccc(-c3ccccc3)cc2)O[C@H](COCc2ccccc2)[C@@H](O)[C@H]1OCc1ccc2ccccc2c1 (stereo partly shown) [Compound 474] | + (Indicates inhibition greater than . . . 50%)
N=C(N)NCCC(=O)N[C@H]1C(OCc2ccc(-c3ccccc3)cc2)O[C@H](COCc2ccc(Cl)cc2)[C@@H](O)[C@H]1OCc1ccc2ccccc2c1 (stereo partly shown) [Compound 475] | + (Indicates inhibition greater than . . . 50%)
N=C(N)NCCC(=O)N[C@H]1C(OCc2ccc(-c3ccccc3)cc2)O[C@H](COCc2ccc3ccccc3c2)[C@@H](O)[C@H]1OCc1ccc(-c2ccccc2)cc1 (stereo partly shown) [Compound 476] | + (Indicates inhibition greater than . . . 50%)
N=C(N)NCCC(=O)N[C@H]1C(OCc2ccc(-c3ccccc3)cc2)O[C@H](COCc2ccccc2)[C@@H](O)[C@H]1OCc1ccc(-c2ccccc2)cc1 (stereo partly shown) [Compound 477] | + (Indicates inhibition greater than . . . 50%)
N=C(N)NCCC(=O)N[C@H]1C(OCc2ccc(-c3ccccc3)cc2)O[C@H](COCc2ccc(Cl)cc2)[C@@H](O)[C@H]1OCc1ccc(-c2ccccc2)cc1 (stereo partly shown) [Compound 478] | + (Indicates inhibition greater than . . . 50%)
N=C(N)NCC(=O)N[C@H]1C(OCc2ccc(Cl)cc2)O[C@H](COCc2ccc3ccccc3c2)[C@@H](O)[C@H]1OCc1ccc(Cl)cc1 (stereo partly shown) [Compound 479] | + (Indicates inhibition greater than . . . 50%)
N=C(N)NCC(=O)N[C@H]1C(OCc2ccc(Cl)cc2)O[C@H](COCc2ccccc2)[C@@H](O)[C@H]1OCc1ccc(Cl)cc1 (stereo partly shown) [Compound 480] | + (Indicates inhibition greater than . . . 50%)
N=C(N)NCC(=O)NC1C(OCc2ccc(Cl)cc2)OC(COCc2ccc(Cl)cc2)C(O)C1OCc1ccc(Cl)cc1 (stereo not shown) [Compound 481] | + (Indicates inhibition greater than . . . 50%)
N=C(N)NCC(=O)NC1C(OCc2ccc(Cl)cc2)OC(COCc2ccc3ccccc3c2)C(O)C1OCc1ccc2ccccc2c1 (stereo not shown) [Compound 482] | + (Indicates inhibition greater than . . . 50%)
N=C(N)NCC(=O)NC1C(OCc2ccc(Cl)cc2)OC(COCc2ccccc2)C(O)C1OCc1ccc2ccccc2c1 (stereo not shown) [Compound 483] | + (Indicates inhibition greater than . . . 50%)
N=C(N)NCC(=O)NC1C(OCc2ccc(Cl)cc2)OC(COCc2ccc(Cl)cc2)C(O)C1OCc1ccc2ccccc2c1 (stereo not shown) [Compound 484] | + (Indicates inhibition greater than . . . 50%)
N=C(N)NCC(=O)NC1C(OCc2ccc(Cl)cc2)OC(COCc2ccc3ccccc3c2)C(O)C1OCc1ccc(-c2ccccc2)cc1 (stereo not shown) [Compound 485] | + (Indicates inhibition greater than . . . 50%)
N=C(N)NCC(=O)NC1C(OCc2ccc(Cl)cc2)OC(COCc2ccccc2)C(O)C1OCc1ccc(-c2ccccc2)cc1 (stereo not shown) [Compound 486] | + (Indicates inhibition greater than . . . 50%)
N=C(N)NCC(=O)NC1C(OCc2ccc(Cl)cc2)OC(COCc2ccc(Cl)cc2)C(O)C1OCc1ccc(-c2ccccc2)cc1 (stereo not shown) [Compound 487] | + (Indicates inhibition greater than . . . 50%)
N=C(N)NCCC(=O)NC1C(OCc2ccc(Cl)cc2)OC(COCc2ccc3ccccc3c2)C(O)C1OCc1ccc(Cl)cc1 (stereo not shown) [Compound 488] | + (Indicates inhibition greater than . . . 50%)
N=C(N)NCCC(=O)NC1C(OCc2ccc(Cl)cc2)OC(COCc2ccccc2)C(O)C1OCc1ccc(Cl)cc1 (stereo not shown) [Compound 489] | + (Indicates inhibition greater than . . . 50%)
